The target of assay [1] is T1, mGluR2-N735D (Rattus norvegicus, UniProt P31421, N735D).
T1 construct: expressed in transfected cells; host or cells: HEK 293T
Nature of the assay: GIRK activation assay, whole cell patch clamp, mGluR2-N735D. It counts as cell-based. The conditions noted are these: relative to wild-type / saturating glutamate. The method, then:
(§1) Whole-cell patch clamp recordings from single isolated cells were performed 24–36 hr after transfection in a high-potassium extracellular solution containing (in mM): 120 KCl, 29 NaCl, 1 MgCl2, 2 CaCl2 and 10 HEPES, pH 7.4. Cells were voltage clamped to −60 mV using an Axopatch 200B amplifier (Axon Instruments) and membrane currents were recorded. Glass pipettes of resistance between 3 and 8 MΩ were filled with intracellular solution containing (in mM): 140 KCl, 10 HEPES, 3 Na2ATP, 0.2 Na2GTP, 5 EGTA and 3 MgCl2, pH 7.4. Data were acquired with a 2 kHz acquisition rate and filtered with the amplifier 4-pole Bessel filter at 1 kHz. Drugs were prepared in extracellular solution and applied using a gravity-driven perfusion system. Data were analyzed with Clampfit (Molecular Devices) and Prism (GraphPad). Data for all conditions came from at least two separate transfections.
(Patch clamp records ionic current or voltage across a cell membrane.)

The target of assay [2] is T2, full-length mGluR2 (Rattus norvegicus, UniProt P31421).
T2 construct: HEK 293T cells expressing full-length mGluR2; expressed in transfected cells; host or cells: HEK 293T
The assay can be described thus: Calcium imaging assay, HEK cells with full-length mGluR2, GCaMP6f and Gαiq chimera. It counts as cell-based. The method, then:
(§2) Cells were cultured in DMEM with 5% FBS on poly-L-lysine-coated glass coverslips. DNA plasmids were transfected into cells using Lipofectamine 3000 (Thermo Fisher). […] For single-molecule pulldown (SiMPull) experiments, cells were transfected with 0.7 μg DNA of HA and SNAP-tagged receptor constructs, unless otherwise noted. For FRET experiments, cells were transfected with either SNAP-tagged constructs at 0.5–0.7 μg of DNA/well or SNAP and CLIP-tagged constructs at a ratio of 1:2 with 0.3 μg of SNAP DNA/well.
Experiments were conducted with continuous gravity-driven perfusion on an inverted microscope (Olympus IX73) and imaged with a 20x objective. […] Regions of interest were selected in Olympus cellSens software and represent single cells or small cell clusters (2–3 cells). Data analysis was performed in Microsoft Excel, where intensities were normalized to the baseline prior to drug application. Dose–response curves were fit using Prism (Graphpad) and data comes from at least two independent experiments for each LY48 concentration.

Assay [3] has as its target T3, SNAP-mGluR2-TMD-N735D (Rattus norvegicus, UniProt P31421, N735D).
T3 construct: Following SNAP tag, mGluR2 truncatd to position Q558; N at position 735 replaced with D; expressed in transfected cells; host or cells: HEK 293T
Nature of the assay: Inter-TMD FRET assay, N735D mutant. Conditions: SNAP-mGluR2-TMD-N735D; normalized to saturating LY48; read-out: inter-TMD FRET increase EC50, N735D. The assay is classed as cell-based. The method, then: (§3) Fluorophores were diluted in EX solution, which was also used to wash coverslips following labeling and prior to mounting on the microscope. After labeling, cells were mounted on an inverted microscope (Olympus IX73) and imaged with a 60x objective. […] Clusters of cells were analyzed together using ImageJ and FRET was calculated as FRET=(IAcceptor)/(IDonor +IAcceptor) where I is fluorescence intensity. No corrections were made for bleed-through between channels or the contribution of donor-donor or acceptor-acceptor dimers as analysis was limited to relative FRET changes between drug treatments rather than absolute FRET values. […] FRET changes calculated for dose–response curves were normalized to the response to saturating […] applied within the same recording and dose–response curves were obtained from multiple cell clusters and averaged from at least three separate experiments. Dose–response curves were fit using Prism (Graphpad). All drugs were purchased from Tocris, prepared in EX solution, and delivered with a gravity-driven perfusion system. For kinetics measurements a pressurized perfusion system (Automate Scientific) was used to produce a flow rate of 0.5 mL/s. Kinetic analysis was performed in Microsoft Excel. The time between 10% and 90% FRET increase or decrease was determined manually. […]

In assay [4] the test system is SNAP-mGluR2-TMD-N735D. Nature of the assay: Inter-TMD FRET assay, N735D mutant. The assay is classed as cell-based, Rattus norvegicus. Conditions: N735D compared to wild-type receptor. On the procedure:
as §3

Assay [5] deals with T4, isolated mGluR2 TMD (SNAP-mGluR2-TMD) (Rattus norvegicus, UniProt P31421).
T4 construct: mGluR2-TMD (rat) starts at Q558; expressed in transfected cells; host or cells: HEK 293T
Nature of the assay: GIRK activation assay, whole cell patch clamp, isolated mGluR2 TMD. It counts as cell-based. The conditions noted are these: normalized to saturating LY48. The method, then:
as §2, §1

The target in assay [6] is T5, SNAP-mGluR2-R57A (Rattus norvegicus, UniProt P31421, R57A).
T5 construct: expressed in transfected cells; host or cells: HEK 293T
The assay can be described thus: GIRK activation assay, whole cell patch clamp, SNAP-mGluR2-R57A. The assay is classed as cell-based. The method, then: as §2, §1

Read-outs that look alike come from different tables or passages of the source.

T5 sequence (P31421 19-872 R57A): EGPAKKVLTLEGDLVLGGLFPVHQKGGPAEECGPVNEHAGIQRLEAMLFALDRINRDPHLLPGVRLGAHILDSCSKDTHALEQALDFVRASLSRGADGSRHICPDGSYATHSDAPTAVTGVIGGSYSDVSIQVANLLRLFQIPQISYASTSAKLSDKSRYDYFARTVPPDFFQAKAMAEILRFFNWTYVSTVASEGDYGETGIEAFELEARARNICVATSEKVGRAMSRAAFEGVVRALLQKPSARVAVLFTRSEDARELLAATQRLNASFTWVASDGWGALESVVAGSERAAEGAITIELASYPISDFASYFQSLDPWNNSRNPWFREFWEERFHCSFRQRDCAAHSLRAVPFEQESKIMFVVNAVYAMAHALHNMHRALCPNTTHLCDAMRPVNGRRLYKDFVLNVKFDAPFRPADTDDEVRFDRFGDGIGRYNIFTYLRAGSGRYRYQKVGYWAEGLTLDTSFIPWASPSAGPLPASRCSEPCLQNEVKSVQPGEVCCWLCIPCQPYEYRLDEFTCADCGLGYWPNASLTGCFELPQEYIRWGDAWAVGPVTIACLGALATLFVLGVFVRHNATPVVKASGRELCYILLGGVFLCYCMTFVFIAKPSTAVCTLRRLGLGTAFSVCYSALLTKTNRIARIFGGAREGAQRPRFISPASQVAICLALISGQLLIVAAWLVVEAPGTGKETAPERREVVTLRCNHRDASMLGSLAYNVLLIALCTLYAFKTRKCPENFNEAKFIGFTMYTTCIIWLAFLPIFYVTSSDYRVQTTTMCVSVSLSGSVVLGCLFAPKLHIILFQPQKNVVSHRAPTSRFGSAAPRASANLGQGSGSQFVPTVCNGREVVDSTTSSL
T1 sequence (P31421 19-872 N735D): as the sequence (P31421 19-872 R57A) above, with A39R, N717D counted along it
T3 sequence (P31421 558-872 N735D): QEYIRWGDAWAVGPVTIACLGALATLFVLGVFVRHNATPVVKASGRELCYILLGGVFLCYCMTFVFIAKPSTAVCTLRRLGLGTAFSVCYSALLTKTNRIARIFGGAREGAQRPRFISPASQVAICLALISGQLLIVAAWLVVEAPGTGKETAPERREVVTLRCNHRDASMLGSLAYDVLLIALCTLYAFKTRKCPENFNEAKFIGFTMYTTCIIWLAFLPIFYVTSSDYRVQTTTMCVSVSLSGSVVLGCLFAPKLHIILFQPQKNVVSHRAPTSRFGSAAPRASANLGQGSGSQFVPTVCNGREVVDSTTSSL
T4 sequence (P31421 558-872 limits assumed): as the sequence (P31421 558-872 N735D) above, with D178N counted along it
T2 sequence (P31421 19-872): as the sequence (P31421 19-872 R57A) above, with A39R counted along it

In general, EC50 refers to the concentration giving half of the maximal effect. Regarding `COc1ccccc1Oc1ccc(N(Cc2cccnc2)S(=O)(=O)CC(F)(F)F)cc1` [LY48], the “GIRK activation of mGluR2-N735D” value in assay [1] is listed as “drastically reduced activation”. Moreover, the EC50 is 1200 ± 200 nM in assay [2]; 20500 ± 1400 nM in assay [3]; 140 ± 10 nM in assay [5]; 290 ± 80 nM in assay [6] (SNAP-mGluR2-R57A, normalized to saturating glutamate, mean ± s.e.m., read-out: GIRK activation EC50); around 300 nM in assay [6] (mGluR2-R57A, read-out: GIRK activation EC50 (approximate)). In assay [4], the “rightward shift of inter-TMD FRET dose-response curve, N735D versus wild-type” value is listed as ~ 20 fold. For the same molecule, the “maximal PAM-induced GIRK activation relative to glutamate” value in assay [6] (mGluR2-R57A, relative to glutamate) was ~ 70%.

The values are drawn from publication PMC6588349 (eLife, 2019).
